Test results: patent US10072017B2, “Compounds and methods for the treatment of cystic fibrosis” (Flatley Discovery Lab, LLC, priority 2015, dated 2018)

Target: T1, CFTR (Homo sapiens, UniProt P13569, DEL508-508)
T1 construct: Primary CF airway epithelial cells were obtained from the UNC Cystic Fibrosis Tissue Procurement and Cell Culture Core; host or cells: primary CF airway epithelial cells
Assay: Equivalent current assay in Primary CF airway epithelial cells (NAUC)
Assay type: cell-based
Conditions: 24 h, normalized to VX809 (3 μM) positive control; for Nauc @ 3 μM: 3 μM test compound; for Nauc @ 10 μM: 10 μM test compound
Method in brief: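 NAUC is the area under the curve from forskolin (10 μM) plus VX770 (1 μM) addition to CFTR-172 (20 μM) block, after benzamil (5 μM). It is corrected for vehicle and scaled to 3 μM VX809 as 1.0 and DMSO as 0.0. Cells were exposed for 24 h to compounds with VX809; medians of ≥4 replicates were fitted sigmoidally.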

T1 sequence (P13569 with tags, fused parts or gaps DEL508-508): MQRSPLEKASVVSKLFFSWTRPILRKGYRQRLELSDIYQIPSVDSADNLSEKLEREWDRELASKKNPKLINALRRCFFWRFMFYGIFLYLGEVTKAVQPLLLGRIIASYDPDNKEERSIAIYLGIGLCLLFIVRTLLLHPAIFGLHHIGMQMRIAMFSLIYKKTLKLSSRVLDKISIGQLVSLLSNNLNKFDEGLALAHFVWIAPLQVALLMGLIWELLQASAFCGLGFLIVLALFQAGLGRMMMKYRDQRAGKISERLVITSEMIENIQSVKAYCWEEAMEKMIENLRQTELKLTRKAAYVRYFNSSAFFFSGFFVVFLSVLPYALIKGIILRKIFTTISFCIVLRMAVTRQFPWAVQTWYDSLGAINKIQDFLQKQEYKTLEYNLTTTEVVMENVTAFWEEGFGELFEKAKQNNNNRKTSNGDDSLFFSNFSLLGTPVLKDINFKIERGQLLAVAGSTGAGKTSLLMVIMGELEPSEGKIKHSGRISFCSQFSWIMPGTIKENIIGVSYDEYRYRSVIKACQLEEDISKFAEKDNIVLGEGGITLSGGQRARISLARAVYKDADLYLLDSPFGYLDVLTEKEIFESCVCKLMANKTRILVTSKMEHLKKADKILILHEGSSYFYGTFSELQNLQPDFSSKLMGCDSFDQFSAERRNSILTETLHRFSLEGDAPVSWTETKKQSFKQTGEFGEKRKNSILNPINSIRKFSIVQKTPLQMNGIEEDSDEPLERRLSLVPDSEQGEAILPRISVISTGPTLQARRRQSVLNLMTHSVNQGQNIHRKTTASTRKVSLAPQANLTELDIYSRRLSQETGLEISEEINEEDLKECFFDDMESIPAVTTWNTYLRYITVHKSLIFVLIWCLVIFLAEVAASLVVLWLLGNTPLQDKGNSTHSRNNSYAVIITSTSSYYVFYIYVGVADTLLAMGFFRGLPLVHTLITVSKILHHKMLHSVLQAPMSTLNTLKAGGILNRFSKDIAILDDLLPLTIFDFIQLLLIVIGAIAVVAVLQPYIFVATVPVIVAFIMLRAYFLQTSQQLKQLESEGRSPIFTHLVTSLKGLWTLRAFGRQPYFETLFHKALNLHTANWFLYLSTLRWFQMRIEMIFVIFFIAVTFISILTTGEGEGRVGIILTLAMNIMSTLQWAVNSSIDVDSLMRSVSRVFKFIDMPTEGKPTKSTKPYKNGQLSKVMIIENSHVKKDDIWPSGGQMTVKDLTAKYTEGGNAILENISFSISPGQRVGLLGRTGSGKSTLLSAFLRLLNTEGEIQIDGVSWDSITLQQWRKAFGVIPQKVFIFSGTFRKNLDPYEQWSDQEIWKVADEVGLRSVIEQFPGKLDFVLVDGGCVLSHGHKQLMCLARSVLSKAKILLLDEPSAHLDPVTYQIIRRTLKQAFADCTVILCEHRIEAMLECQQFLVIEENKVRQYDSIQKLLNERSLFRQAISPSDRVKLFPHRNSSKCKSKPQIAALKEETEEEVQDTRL

| SMILES | Nauc @ 3 μM | Nauc @ 10 μM |
| --- | --- | --- |
| O=C1C2C3CC(F)(F)CN3C3(C(=O)Nc4c(Cl)cc(Cl)cc43)C2C(=O)N1c1cc(Cl)cc(Cl)n1 (single isomer, unassigned) [Example 220] | +++ (NAUC “+++” refers to an observed NAUC >170% of positive control) | +++ (NAUC “+++” refers to an observed NAUC >170% of positive control) |
| Cc1cccc2c1NC(=O)C21C2C(=O)N(c3cc(Cl)cc(Cl)c3)C(=O)C2C2CCCN21 (stereo not drawn) [Example 12] | + (NAUC “+” refers to an observed NAUC <140% of positive control) | ++ (NAUC “++” refers to an observed NAUC 170-140% of positive control) |
| COc1cc(Cl)cc(N2C(=O)C3C4C[C@H](Cl)CN4C4(C(=O)Nc5c(Cl)cc(Cl)cc54)C3C2=O)c1 (single isomer, unassigned) [Example 107] | +++ (NAUC “+++” refers to an observed NAUC >170% of positive control) | +++ (NAUC “+++” refers to an observed NAUC >170% of positive control) |
| O=C1C2C(Cc3ccccc3OC(F)(F)F)NC3(C(=O)Nc4c(Cl)cc(Cl)cc43)C2C(=O)N1c1cc(Cl)cc(Cl)c1 (stereo not drawn) [Example 222] | +++ (NAUC “+++” refers to an observed NAUC >170% of positive control) | ++ (NAUC “++” refers to an observed NAUC 170-140% of positive control) |
| N[C@@H]1CC2C3C(=O)N(c4cc(Cl)cc(Cl)c4)C(=O)C3C3(C(=O)Nc4c(Cl)cc(Cl)cc43)N2C1 (stereo partly drawn) [Example 60] | + (NAUC “+” refers to an observed NAUC <140% of positive control) | ++ (NAUC “++” refers to an observed NAUC 170-140% of positive control) |
| COC1(OC)CC2C3C(=O)N(c4cc(Cl)cc(Cl)c4)C(=O)C3C3(C(=O)Nc4c(Cl)cc(Cl)cc43)N2C1 (stereo not drawn) [Example 167] | + (NAUC “+” refers to an observed NAUC <140% of positive control) | ++ (NAUC “++” refers to an observed NAUC 170-140% of positive control) |
| C[C@]1(O)CC2C3C(=O)N(c4cc(Cl)cc(Cl)c4)C(=O)C3C3(C(=O)Nc4c(Cl)cc(Cl)cc43)N2C1 (stereo partly drawn) [Example 171] | +++ (NAUC “+++” refers to an observed NAUC >170% of positive control) | +++ (NAUC “+++” refers to an observed NAUC >170% of positive control) |
| C=C1CC2C3C(=O)N(c4cc(Cl)cc(Cl)c4)C(=O)C3C3(C(=O)Nc4c(Cl)cc(Cl)cc43)N2C1 (single isomer, unassigned) [Example 144] | +++ (NAUC “+++” refers to an observed NAUC >170% of positive control) | +++ (NAUC “+++” refers to an observed NAUC >170% of positive control) |
| O=C1C2C3c4ccccc4CN3C3(C(=O)Nc4c(Cl)cc(Cl)cc43)C2C(=O)N1c1cc(Cl)cc(Cl)c1 (stereo not drawn) [Example 22] | +++ (NAUC “+++” refers to an observed NAUC >170% of positive control) | +++ (NAUC “+++” refers to an observed NAUC >170% of positive control) |
| COc1c(Cl)cc(N2C(=O)C3C4C[C@@](C)(F)CN4C4(C(=O)Nc5c(Cl)cc(Cl)cc54)C3C2=O)cc1Cl (single isomer, unassigned) [Example 162] | + (NAUC “+” refers to an observed NAUC <140% of positive control) | ++ (NAUC “++” refers to an observed NAUC 170-140% of positive control) |
| COc1cc(Cl)cc(N2C(=O)C3C4C[C@](C)(F)CN4C4(C(=O)Nc5c(Cl)cc(Cl)cc54)C3C2=O)c1 (single isomer, unassigned) [Example 254] | +++ (NAUC “+++” refers to an observed NAUC >170% of positive control) | +++ (NAUC “+++” refers to an observed NAUC >170% of positive control) |
| C[C@]1(OCc2ccccc2)CC2C3C(=O)N(c4cc(Cl)cc(Cl)c4)C(=O)C3C3(C(=O)Nc4c(Cl)cc(Cl)cc43)N2C1 (single isomer, unassigned) [Example 240] | +++ (NAUC “+++” refers to an observed NAUC >170% of positive control) | + (NAUC “+” refers to an observed NAUC <140% of positive control) |
| O=C1C2C3C[C@H](F)CN3C3(C(=O)Nc4c(Cl)cc(Cl)cc43)C2C(=O)N1c1cc(Cl)cc(Cl)c1 (single isomer, unassigned) [Example 243] | +++ (NAUC “+++” refers to an observed NAUC >170% of positive control) | +++ (NAUC “+++” refers to an observed NAUC >170% of positive control) |
| CC1(C)CC2C3C(=O)N(c4cc(Cl)c(OC(F)F)c(Cl)c4)C(=O)C3C3(C(=O)Nc4c(Cl)cc(Cl)cc43)N2C1 (single isomer, unassigned) [Example 255] | +++ (NAUC “+++” refers to an observed NAUC >170% of positive control) | +++ (NAUC “+++” refers to an observed NAUC >170% of positive control) |
| Cc1cccc(CC2NC3(C(=O)Nc4c(Cl)cc(Cl)cc43)C3C(=O)N(c4cc(Cl)cc(Cl)c4)C(=O)C23)n1 (stereo not drawn) [Example 238] | + (NAUC “+” refers to an observed NAUC <140% of positive control) | ++ (NAUC “++” refers to an observed NAUC 170-140% of positive control) |
| CC(=O)Oc1c(Cl)cc(Cl)cc1N1C(=O)C2C3C[C@H](Cl)CN3C3(C(=O)Nc4c(Cl)cc(Cl)cc43)C2C1=O (stereo partly drawn) [Example 93] | ++ (NAUC “++” refers to an observed NAUC 170-140% of positive control) | +++ (NAUC “+++” refers to an observed NAUC >170% of positive control) |
| O=C1C2C3CC(C(F)F)CN3C3(C(=O)Nc4c(Cl)cc(Cl)cc43)C2C(=O)N1c1cc(Cl)nc(Cl)c1 (stereo not drawn) [Example 132] | + (NAUC “+” refers to an observed NAUC <140% of positive control) | ++ (NAUC “++” refers to an observed NAUC 170-140% of positive control) |
| [2H]C12C(=O)N(c3cc(Cl)cc(Cl)c3)C(=O)C1([2H])C1(C(=O)Nc3c(Cl)cc(Cl)cc31)N1CCCC12 (single isomer, unassigned) [Example 70] | +++ (NAUC “+++” refers to an observed NAUC >170% of positive control) | +++ (NAUC “+++” refers to an observed NAUC >170% of positive control) |
| C[C@@]1(F)CC2C3C(=O)N(c4cc(Cl)cc(Cl)n4)C(=O)C3C3(C(=O)Nc4c(Cl)cc(Cl)cc43)N2C1 (single isomer, unassigned) [Example 230] | +++ (NAUC “+++” refers to an observed NAUC >170% of positive control) | +++ (NAUC “+++” refers to an observed NAUC >170% of positive control) |
| O=C1C2C3C[C@H](O)CN3C3(C(=O)Nc4c(Cl)cc(Cl)cc43)C2C(=O)N1c1cc(Cl)c(O)c(Cl)c1 (stereo partly drawn) [Example 82] | + (NAUC “+” refers to an observed NAUC <140% of positive control) | ++ (NAUC “++” refers to an observed NAUC 170-140% of positive control) |
| O=C1C2C(Cc3ccccc3)NC3(C(=O)Nc4c(Cl)cc(Cl)cc43)C2C(=O)N1c1cc(Cl)cc(Cl)c1 (stereo not drawn) [Example 154] | +++ (NAUC “+++” refers to an observed NAUC >170% of positive control) | +++ (NAUC “+++” refers to an observed NAUC >170% of positive control) |
